In PMC7531004, “Discovery of gramicidin A analogues with altered activities by multidimensional screening of a one-bead-one-compound library” (Nature Communications, 2020):
Where a SMILES comes first, the peptide text is derived from it. [ ]: non-standard residue; d: D form. The star is where a group is joined. NHCH2CH2OH = OCCN*; For = O=C*

How the values were obtained:
[1] = system: Streptococcus pyogenes SSI-9; assay: Antibacterial activity assay of bead-derived peptides (three concentrations); assay type: cell-based; parameters: key: +++: inhibition by the 640-fold diluted peptide solution; ++: inhibition by the 160-fold diluted solution; +: inhibition by the 40-fold diluted solution; -: no inhibition; conditions: S. pyogenes, bead-derived peptide solution, three concentrations
Procedure, shortened: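 Undiluted, 4-fold and 16-fold DMSO-diluted peptide stocks; S. pyogenes SSI-9, 2 × 10^5 CFU, cation-adjusted MHB (50 mg/L Ca2+, 25 mg/L Mg2+) + 5% laked horse blood; 37 °C, 18 h; readout = cell pellet visible or not.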

[2] = cell viability/%
Procedure, shortened: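 P388 cells at 1 × 10^4 cells/mL (final) were exposed to library peptides (stocks diluted 250-fold in RPMI1640/10% FBS) for 92 h at 37 °C, 5% CO2. Viable cells were counted by WST-1/1-methoxy PMS (4 h), absorbance 415 nm, and expressed as cell viability (%).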

[3] = H+/Na+ transport assay of bead-derived peptides (one-point); assay type: biochemical; parameters: key: relative activity; mean of two control wells = 1.00; conditions: bead-derived peptide solution, EYPC/EYPG LUVs;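 note: relative to parent gramicidin A activity set to 1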
Procedure, shortened: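 H+/Na+ transport is monitored through pyranine fluorescence in freshly extruded LUVs after a 30-min room-temperature vortex with each library peptide at a single concentration. Signals are normalized to detergent (Triton X-100) and untreated controls.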

Row | SMILES | antibacterial activity [1] | viability [2] [%] | H+/Na+ transport activity normalized against the value of 1 (1.00) [3]
1 | CC(C)C[C@@H](NC(=O)[C@H](C)NC(=O)[C@H](NC(=O)[C@H](C)NC(=O)CNC(=O)[C@@H](NC=O)C(C)C)C(C)C)C(=O)N[C@H](C(=O)N[C@H](CC(C)C)C(=O)N[C@@H](Cc1c[nH]c2ccccc12)C(=O)N[C@@H](C(=O)N[C@@H](Cc1c[nH]c2ccccc12)C(=O)N[C@H](CC(C)C)C(=O)N[C@@H](Cc1c[nH]c2ccccc12)C(=O)N[C@H](CC(C)C)C(=O)N[C@@H](Cc1c[nH]c2ccccc12)C(=O)NCCO)[C@H](C)O)C(C)C [compound 11400] (For-VGA[dV]A[dL]V[dL]W[dT]W[dL]W[dL]W-NHCH2CH2OH) | + | 53 | 1.03
2 | CNC(=O)C[C@@H](NC(=O)[C@@H](NC(=O)[C@H](NC(=O)[C@H](C)NC(=O)[C@H](NC(=O)[C@H](C)NC(=O)CNC(=O)[C@@H](NC=O)C(C)C)C(C)C)C(C)C)C(C)C)C(=O)N[C@@H](Cc1c[nH]c2ccccc12)C(=O)N[C@@H](C(=O)N[C@@H](Cc1c[nH]c2ccccc12)C(=O)N[C@@H](C(=O)N[C@@H](Cc1c[nH]c2ccccc12)C(=O)N[C@H](CC(C)C)C(=O)N[C@@H](Cc1c[nH]c2ccccc12)C(=O)NCCO)C(C)C)C(C)C [compound 11413] (For-VGA[dV]A[dV]V[dD](NHMe)W[dV]W[dV]W[dL]W-NHCH2CH2OH) | - | 45.4 | 1.21
3 | CC(C)C[C@@H](NC(=O)[C@H](C)NC(=O)CNC(=O)[C@@H](NC=O)C(C)C)C(=O)N[C@@H](C)C(=O)N[C@@H](C(=O)N[C@H](C(=O)N[C@H](CC(C)C)C(=O)N[C@@H](Cc1c[nH]c2ccccc12)C(=O)N[C@@H](C(=O)N[C@@H](Cc1c[nH]c2ccccc12)C(=O)N[C@@H](C(=O)N[C@@H](Cc1c[nH]c2ccccc12)C(=O)N[C@@H](C(=O)N[C@@H](Cc1c[nH]c2ccccc12)C(=O)NCCO)[C@H](C)O)C(C)C)C(C)C)C(C)C)C(C)C [compound 11625] (For-VGA[dL]A[dV]V[dL]W[dV]W[dV]W[dT]W-NHCH2CH2OH) | - | 100 | 1.08
4 | CC(C)C[C@@H](NC(=O)[C@H](Cc1c[nH]c2ccccc12)NC(=O)[C@@H](CC(C)C)NC(=O)[C@H](Cc1c[nH]c2ccccc12)NC(=O)[C@H](NC(=O)[C@H](Cc1c[nH]c2ccccc12)NC(=O)[C@H](NC(=O)[C@@H](NC(=O)[C@H](NC(=O)[C@H](C)NC(=O)[C@H](NC(=O)[C@H](C)NC(=O)CNC(=O)[C@@H](NC=O)C(C)C)C(C)C)C(C)C)C(C)C)[C@H](C)O)[C@H](C)O)C(=O)N[C@@H](Cc1c[nH]c2ccccc12)C(=O)NCCO [compound 12293] (For-VGA[dV]A[dV]V[dT]W[dT]W[dL]W[dL]W-NHCH2CH2OH) | - | 100 | 1.00
5 | CC(C)C[C@@H](NC(=O)[C@H](Cc1c[nH]c2ccccc12)NC(=O)[C@H](NC(=O)[C@H](Cc1c[nH]c2ccccc12)NC(=O)[C@@H](CC(C)C)NC(=O)[C@H](Cc1c[nH]c2ccccc12)NC(=O)[C@@H](CC(C)C)NC(=O)[C@@H](NC(=O)[C@H](NC(=O)[C@H](C)NC(=O)[C@H](NC(=O)[C@H](C)NC(=O)CNC(=O)[C@@H](NC=O)C(C)C)C(C)C)C(C)C)C(C)C)C(C)C)C(=O)N[C@@H](Cc1c[nH]c2ccccc12)C(=O)NCCO [compound 12432] (For-VGA[dV]A[dV]V[dL]W[dL]W[dV]W[dL]W-NHCH2CH2OH) | - | 6.4 | 1.01
6 | CC(C)C[C@@H](NC(=O)[C@H](Cc1c[nH]c2ccccc12)NC(=O)[C@H](NC(=O)[C@H](Cc1c[nH]c2ccccc12)NC(=O)[C@H](NC(=O)[C@@H](NC(=O)[C@H](NC(=O)[C@H](C)NC(=O)[C@H](NC(=O)[C@H](C)NC(=O)CNC(=O)[C@@H](NC=O)C(C)C)[C@H](C)O)C(C)C)C(C)C)C(C)C)[C@H](C)O)C(=O)N[C@@H](Cc1c[nH]c2ccccc12)C(=O)N[C@@H](C(=O)N[C@@H](Cc1c[nH]c2ccccc12)C(=O)NCCO)C(C)C [compound 12629] (For-VGA[dT]A[dV]V[dV]W[dT]W[dL]W[dV]W-NHCH2CH2OH) | - | 100 | 1.01
7 | CC(C)C[C@@H](NC(=O)[C@H](C)NC(=O)[C@H](NC(=O)[C@H](C)NC(=O)CNC(=O)[C@@H](NC=O)C(C)C)C(C)C)C(=O)N[C@H](C(=O)N[C@@H](C(=O)N[C@@H](Cc1c[nH]c2ccccc12)C(=O)N[C@@H](C(=O)N[C@@H](Cc1c[nH]c2ccccc12)C(=O)N[C@@H](C(=O)N[C@@H](Cc1c[nH]c2ccccc12)C(=O)N[C@H](CC(C)C)C(=O)N[C@@H](Cc1c[nH]c2ccccc12)C(=O)NCCO)C(C)C)[C@H](C)O)C(C)C)C(C)C [compound 12865] (For-VGA[dV]A[dL]V[dV]W[dT]W[dV]W[dL]W-NHCH2CH2OH) | - | 91.7 | 1.10
8 | CNC(=O)C[C@@H](NC(=O)[C@H](C)NC(=O)[C@H](NC(=O)[C@H](C)NC(=O)CNC(=O)[C@@H](NC=O)C(C)C)C(C)C)C(=O)N[C@H](C(=O)N[C@@H](C(=O)N[C@@H](Cc1c[nH]c2ccccc12)C(=O)N[C@H](CC(C)C)C(=O)N[C@@H](Cc1c[nH]c2ccccc12)C(=O)N[C@@H](C(=O)N[C@@H](Cc1c[nH]c2ccccc12)C(=O)N[C@H](CC(C)C)C(=O)N[C@@H](Cc1c[nH]c2ccccc12)C(=O)NCCO)C(C)C)C(C)C)C(C)C [compound 12938] (For-VGA[dV]A[dD](NHMe)V[dV]W[dL]W[dV]W[dL]W-NHCH2CH2OH) | - | 100 | 1.07
9 | CC(C)C[C@@H](NC(=O)[C@H](C)NC(=O)CNC(=O)[C@@H](NC=O)C(C)C)C(=O)N[C@@H](C)C(=O)N[C@@H](C(=O)N[C@H](C(=O)N[C@@H](C(=O)N[C@@H](Cc1c[nH]c2ccccc12)C(=O)N[C@H](CC(C)C)C(=O)N[C@@H](Cc1c[nH]c2ccccc12)C(=O)N[C@H](CC(C)C)C(=O)N[C@@H](Cc1c[nH]c2ccccc12)C(=O)N[C@@H](C(=O)N[C@@H](Cc1c[nH]c2ccccc12)C(=O)NCCO)C(C)C)C(C)C)C(C)C)[C@H](C)O [compound 13002] (For-VGA[dL]A[dT]V[dV]W[dL]W[dL]W[dV]W-NHCH2CH2OH) | - | 98.3 | 1.33
10 | CNC(=O)C[C@@H](NC(=O)[C@H](Cc1c[nH]c2ccccc12)NC(=O)[C@@H](CC(C)C)NC(=O)[C@H](Cc1c[nH]c2ccccc12)NC(=O)[C@H](NC(=O)[C@H](Cc1c[nH]c2ccccc12)NC(=O)[C@@H](CC(C)C)NC(=O)[C@@H](NC(=O)[C@@H](CC(C)C)NC(=O)[C@H](C)NC(=O)[C@@H](CC(C)C)NC(=O)[C@H](C)NC(=O)CNC(=O)[C@@H](NC=O)C(C)C)C(C)C)[C@H](C)O)C(=O)N[C@@H](Cc1c[nH]c2ccccc12)C(=O)NCCO [compound 13033] (For-VGA[dL]A[dL]V[dL]W[dT]W[dL]W[dD](NHMe)W-NHCH2CH2OH) | - | 100 | 1.01
11 | CC(C)C[C@@H](NC(=O)[C@H](C)NC(=O)[C@H](NC(=O)[C@H](C)NC(=O)CNC(=O)[C@@H](NC=O)C(C)C)C(C)C)C(=O)N[C@H](C(=O)N[C@@H](C(=O)N[C@@H](Cc1c[nH]c2ccccc12)C(=O)N[C@H](CC(C)C)C(=O)N[C@@H](Cc1c[nH]c2ccccc12)C(=O)N[C@@H](C(=O)N[C@@H](Cc1c[nH]c2ccccc12)C(=O)N[C@@H](C(=O)N[C@@H](Cc1c[nH]c2ccccc12)C(=O)NCCO)[C@H](C)O)[C@H](C)O)C(C)C)C(C)C [compound 13040] (For-VGA[dV]A[dL]V[dV]W[dL]W[dT]W[dT]W-NHCH2CH2OH) | - | 100 | 1.01
12 | CNC(=O)C[C@@H](NC(=O)[C@H](C)NC(=O)[C@H](NC(=O)[C@H](C)NC(=O)CNC(=O)[C@@H](NC=O)C(C)C)C(C)C)C(=O)N[C@H](C(=O)N[C@H](CC(C)C)C(=O)N[C@@H](Cc1c[nH]c2ccccc12)C(=O)N[C@@H](C(=O)N[C@@H](Cc1c[nH]c2ccccc12)C(=O)N[C@@H](C(=O)N[C@@H](Cc1c[nH]c2ccccc12)C(=O)N[C@@H](C(=O)N[C@@H](Cc1c[nH]c2ccccc12)C(=O)NCCO)C(C)C)C(C)C)C(C)C)C(C)C [compound 13148] (For-VGA[dV]A[dD](NHMe)V[dL]W[dV]W[dV]W[dV]W-NHCH2CH2OH) | - | 93.6 | 1.03
13 | CC(C)C[C@@H](NC(=O)[C@H](Cc1c[nH]c2ccccc12)NC(=O)[C@@H](CC(C)C)NC(=O)[C@H](Cc1c[nH]c2ccccc12)NC(=O)[C@@H](CC(C)C)NC(=O)[C@H](Cc1c[nH]c2ccccc12)NC(=O)[C@H](NC(=O)[C@@H](NC(=O)[C@H](NC(=O)[C@H](C)NC(=O)[C@H](NC(=O)[C@H](C)NC(=O)CNC(=O)[C@@H](NC=O)C(C)C)C(C)C)[C@H](C)O)C(C)C)C(C)C)C(=O)N[C@@H](Cc1c[nH]c2ccccc12)C(=O)NCCO [compound 13151] (For-VGA[dV]A[dT]V[dV]W[dL]W[dL]W[dL]W-NHCH2CH2OH) | - | 100 | 1.01
